Assay results as given in patent US20240059735A1, “COMPOSITIONS AND METHODS FOR THE PREVENTION AND TREATMENT OF MIT[…]” (Stealth BioTherapeutics Inc., priority 2016, published 2024).
Where a SMILES comes first, the peptide text is derived from it. [ ]: non-standard residue; d: D form. Dmt = Cc1cc(O)cc(C)c1C[C@H](N)C(=O)O

Experiments:
[1] = tested on: several mammalian cell types; conditions: cited from earlier work
[2] = 0.01-0.25 mg/kg/hr IV, five days
Protocol: Control mitochondrial myopathy subjects (Group 4) received equal volumes of saline solution administered for two hours. All groups were treated for five consecutive days. The demographics of the subjects are disclosed in Table 5.

Row | Molecule | penetration of the plasma membrane [1] | serious adverse events [2] | vital signs, electrocardiograms, clinical laboratory findings [2]
1 | 2′,6′-Dmt-D-Arg-Phe-Lys-NH2 | readily penetrates the plasma membrane of several mammalian cell types in an energy-independent manner |  | 
2 | Cc1cc(O)cc(C)c1C[C@H](NC(=O)[C@H](N)CCCNC(=N)N)C(=O)N[C@@H](CCCCN)C(=O)N[C@@H](Cc1ccccc1)C(N)=O [D-Arg-2′,6′-Dmt-Lys-Phe-NH2] (H-[dR][Dmt]KF-NH2) |  | None of the test subjects exhibited any serious adverse events | no significant trends changes
